# Assay results: patent US20210369583A1, “COMPOSITIONS FOR PROVIDING SKIN CARE BENEFITS AND METHODS OF USE” (Danisco US Inc., priority 2018, published 2021)
# Several values for one entry are separate records, joined by “and”; a condition that tells them apart may be missing. Equal values may be shown once.
# Legend:
# Assay type in all cases: cell-based
# [1] = system: Normal Human Epidermal Keratinocytes (NHEK); experiment: Osmoprotective effect on keratinocytes under hyper-osmotic conditions (NaCl 150 mM), flow cytometry
# Method: (§1) The type of cells use for this study were Normal Human Epidermal Keratinocytes (NHEK), Bioalternatives reference K341 used at the 3rd passage. The culture conditions were: 37° C., 5% CO2. The culture medium is referred to as “keratinocyte-SFM” supplemented with Epidermal Growth Factor (EGF) 0.25 ng/ml, Pituitary extract (PE) 25 μg/ml, Gentamycin 25 μg/ml. The assay medium was “keratinocyte-SFM” supplemented with gentamycin 25 μg/ml.
# (§2) Keratinocytes (NHEK) were seeded in 24-well plates and cultured for 24 hours in culture medium. The medium was then replaced by assay medium containing or not (control) the single osmolyte or the combination of osmolytes C1 or C2 and cells were pre-incubated for 24 hours.
# For hyper-osmotic conditions, the medium was removed and replaced by assay medium containing NaCl at 150 mM and containing the single osmolyte or the combination of osmolytes (C1 or C2). The cells were then incubated for 48 hours. In parallel, a normo-osmotic control (no osmotic stress control) was performed.
# (§3) At the end of incubation, culture medium was removed and the cells were rinsed with a PBS solution. The cells were then detached using trypsin treatment and transferred into tubes. After several washes in PBS/BSA 0.2%, the cells were labeled with a propidium iodide (PI) solution (staining of dead cells).
# (§4) Cell populations were then analyzed for number (total number of event per well during a fixed time), size (FSC), granularity (SSC) and viability parameters (% PI-positive cells, equivalent to % dead cells) by flow cytometry using BD FACSVerse™ flow cytometer. • Acquisition 1 represents the number of events (=number of cells) passing one by one in front of the cytometer laser over a fixed time. It doesn't distinct dead or living cells at this step. By subtracting the number of events (in hyperosmotic or irradiated condition) from the total number of events in normoosmotic conditions, it is possible to calculate the number of cells that have been lysed due to the stress conditions. • Acquisition 2, represents, on a fixed number of events, 1) the detection of the light scattered when the cells are crossing the laser, FSC-A, from which can be calculated the cell size, 2) the detection of the cells stained by Propidium Iodide (dead cells) from which can be calculated the % of viable cells.
# [2] = system: Normal Human Epidermal Keratinocytes (NHEK); experiment: Protection of keratinocytes under UV-irradiated conditions (UVB 250 mJ/cm2), flow cytometry
# Method: as §1, §2
# For UV-irradiated conditions, the medium was then removed and replaced by assay medium and the cells were irradiated with UVB at 250 mJ/cm2 (+UVA at 1.6 J/cm2). The lamp used was a SOL500 Sun simulator equipped with an H2 filter (Dr. Hole, AG). A non-irradiated control condition was performed in parallel. After irradiation, the medium was removed and replaced by assay medium containing or not (control) the single osmolyte or the combination of osmolytes (C1 or C2) and the cells were incubated for 48 hours.
# as §3, §4
# [3] = system: Normal Human Epidermal Keratinocytes (NHEK); experiment: Protection of keratinocytes under UV-irradiated and hyper-osmotic conditions, flow cytometry; settings: NaCl 150 mM + UVB 250 mj/cm^2
# Method: as §1, §2
# For UV-irradiated and hyper-osmotic conditions, the medium was then removed and replaced by assay medium and the cells were irradiated with UVB at 250 mJ/cm2 (+UVA at 1.6 J/cm2). The lamp used was a SOL500 Sun simulator equipped with an H2 filter (Dr. Höle, AG). After irradiation, the medium was removed and replaced by assay medium containing NaCl at 150 mM (hyperosmotic conditions) and containing the single osmolyte or the combination of osmolytes (C1 or C2) and the cells were then incubated for 48 hours. In parallel, a non-irradiated and normo-osmotic control was performed.
# as §3, §4
# [4] = system: Reconstructed Human Epidermis (RHE); experiment: Caffein diffusion test on Reconstituted Human Epidermis (RHE); settings: for caffein diffusion through RHE: systemic treatment
# Method: By measuring the amount of […] […] The epidermis used was a Reconstructed Human Epidermis, called “RHE”, 0-day-old, batch no 01015-444, placed in culture conditions 37° C., 5% CO2. The assay medium was the Bioalternatives maintenance medium. RHE at Day 0 (when placed at the air/liquid interface) were placed in assay medium containing or not (control) the compounds, the combination or the reference (vitamin C at 200 μg/ml). This is referred to as a systemic application, to be differentiated from a topical application. RHE were then incubated for 7 days with treatment renewal at Day 3 and Day 5. All experimental conditions were performed in n=3. At the end of incubation (Day 7), radioactive […] ([^14[…] applied on the surface of each epidermis. The radioactivity contained in subnatants was measured by liquid scintillation after 30 minutes, 1, 2, 3, 4, 5, 6, 7 and 8 hours of incubation. The barrier function is calculated according to the below formula:
structure (smiles),measurement,setting,value
O=C(O)[C@@H]1CCCN1 [L-Proline],% cell size difference compared to control hyperosmotic stress condition under 150 mM NaCl,[1]; 3 mg/ml total osmolytes,+4%
same,% cell size difference compared to control hyperosmotic stress condition under 150 mM NaCl,[1]; 10 mg/ml total osmolytes,+13%
same,viability at 3000 µg/mL,"[1]; Homo sapiens, NHEK, NaCl 150 mM 48 h, 3 mg/ml, read-out: Cell viability, % hyperosmotic control",143%
same,"Lysed cells, % normo-osmotic control (% cell lysis)","[1]; NaCl 150 mM 48 h, 3 mg/ml",67.2%
same,Lysed cells: Mean number of event per well normo-osmotic control − Mean number of event per well hyperosmotic conditions,"[1]; NaCl 150 mM 48 h, 3 mg/ml",73197
same,Mean % viable cells = 100-% PI-positive cells = 100-% dead cells,"[1]; NaCl 150 mM 48 h, 3 mg/ml",69.6%
same,Mean cell size FSC-A (au),"[1]; NaCl 150 mM 48 h, 3 mg/ml",68417 au
same,"Total number of events per well, % hyperosmotic control","[1]; NaCl 150 mM 48 h, 3 mg/ml",130%
same,"Total number of events per well, Mean (au)","[1]; NaCl 150 mM 48 h, 3 mg/ml",18676 au
same,"Cell size, % hyperosmotic control","[1]; NaCl 150 mM 48 h, 10 mg/ml",113%
same,"Lysed cells, % normo-osmotic control (% cell lysis)","[1]; NaCl 150 mM 48 h, 10 mg/ml",41.7% and 67.2%
same,Lysed cells: Mean number of event per well normo-osmotic control − Mean number of event per well hyperosmotic conditions,"[1]; NaCl 150 mM 48 h, 10 mg/ml",56995
same,Mean cell size FSC-A (au),"[1]; NaCl 150 mM 48 h, 10 mg/ml",74581 au
same,"Total number of events per well, % hyperosmotic control","[1]; NaCl 150 mM 48 h, 10 mg/ml",243%
same,"Total number of events per well, Mean (au)","[1]; NaCl 150 mM 48 h, 10 mg/ml",34878 au
same,viability at 3000 µg/mL,"[2]; Homo sapiens, NHEK, light or radiation study, UVB 250 mj/cm^2, 3 mg/ml, read-out: Cell viability, % hyperosmotic control",103%
same,effect on cells submitted to UVB irradiation,[2]; UVB 250 mJ/cm^2 alone or in combination with hyperosmotic stress,no clear effect
same,"Cell size, % hyperosmotic control","[2]; UVB 250 mj/cm^2, 3 mg/ml",110%
same,Mean % viable cells = 100-% PI-positive cells = 100-% dead cells,"[2]; UVB 250 mj/cm^2, 3 mg/ml",86.4%
same,Mean cell size FSC-A (au),"[2]; UVB 250 mj/cm^2, 3 mg/ml",100519 au
same,"Cell size, % hyperosmotic control","[2]; UVB 250 mj/cm^2, 10 mg/ml",110%
same,Mean cell size FSC-A (au),"[2]; UVB 250 mj/cm^2, 10 mg/ml",101243 au
same,"Cell size, % hyperosmotic control",[3]; 3 mg/ml,102%
same,Mean cell size FSC-A (au),[3]; 3 mg/ml,69601 au
same,"Cell size, % hyperosmotic control",[3]; 10 mg/ml,100%
same,Mean cell size FSC-A (au),[3]; 10 mg/ml,68169 au
same,Barrier function % Control,"[4]; 0.5 hrs, 3 mg/ml",96%
same,Mean [14C]-caffein (cpm),"[4]; 0.5 hrs, 3 mg/ml",20720 cpm
same,[14C]-caffein % Control,"[4]; 0.5 hrs, 3 mg/ml",105%
same,Barrier function % Control,"[4]; 0.5 hrs, 10 mg/ml",98%
same,Mean [14C]-caffein (cpm),"[4]; 0.5 hrs, 10 mg/ml",20193 cpm
same,[14C]-caffein % Control,"[4]; 0.5 hrs, 10 mg/ml",103%
same,Barrier function % Control,"[4]; 1 hrs, 3 mg/ml",97%
same,Mean [14C]-caffein (cpm),"[4]; 1 hrs, 3 mg/ml",47352 cpm
same,[14C]-caffein % Control,"[4]; 1 hrs, 3 mg/ml",104%
same,Barrier function % Control,"[4]; 1 hrs, 10 mg/ml",100%
same,Mean [14C]-caffein (cpm),"[4]; 1 hrs, 10 mg/ml",45495 cpm
same,[14C]-caffein % Control,"[4]; 1 hrs, 10 mg/ml",100%
same,Barrier function % Control,"[4]; 2 hrs, 3 mg/ml",94%
same,Mean [14C]-caffein (cpm),"[4]; 2 hrs, 3 mg/ml",106026 cpm
same,[14C]-caffein % Control,"[4]; 2 hrs, 3 mg/ml",106%
same,Barrier function % Control,"[4]; 2 hrs, 10 mg/ml",98%
same,Mean [14C]-caffein (cpm),"[4]; 2 hrs, 10 mg/ml",102027 cpm
same,[14C]-caffein % Control,"[4]; 2 hrs, 10 mg/ml",102%
same,Barrier function % Control,"[4]; 3 hrs, 3 mg/ml",93%
same,Mean [14C]-caffein (cpm),"[4]; 3 hrs, 3 mg/ml",147545 cpm
same,[14C]-caffein % Control,"[4]; 3 hrs, 3 mg/ml",108%
same,Barrier function % Control,"[4]; 3 hrs, 10 mg/ml",98%
same,Mean [14C]-caffein (cpm),"[4]; 3 hrs, 10 mg/ml",140203 cpm
same,[14C]-caffein % Control,"[4]; 3 hrs, 10 mg/ml",102%
same,Barrier function % Control,"[4]; 4 hrs, 3 mg/ml",93%
same,Mean [14C]-caffein (cpm),"[4]; 4 hrs, 3 mg/ml",169001 cpm
same,[14C]-caffein % Control,"[4]; 4 hrs, 3 mg/ml",107%
same,Barrier function % Control,"[4]; 4 hrs, 10 mg/ml",97%
same,Mean [14C]-caffein (cpm),"[4]; 4 hrs, 10 mg/ml",162571 cpm
same,[14C]-caffein % Control,"[4]; 4 hrs, 10 mg/ml",103%
same,Barrier function % Control,"[4]; 5 hrs, 3 mg/ml",93%
same,Mean [14C]-caffein (cpm),"[4]; 5 hrs, 3 mg/ml",184911 cpm
same,[14C]-caffein % Control,"[4]; 5 hrs, 3 mg/ml",107%
same,Barrier function % Control,"[4]; 5 hrs, 10 mg/ml",98%
same,Mean [14C]-caffein (cpm),"[4]; 5 hrs, 10 mg/ml",176461 cpm
same,[14C]-caffein % Control,"[4]; 5 hrs, 10 mg/ml",102%
same,Barrier function % Control,"[4]; 6 hrs, 3 mg/ml",94%
same,Mean [14C]-caffein (cpm),"[4]; 6 hrs, 3 mg/ml",190819 cpm
same,[14C]-caffein % Control,"[4]; 6 hrs, 3 mg/ml",106%
same,Barrier function % Control,"[4]; 6 hrs, 10 mg/ml",99%
same,Mean [14C]-caffein (cpm),"[4]; 6 hrs, 10 mg/ml",181674 cpm
same,[14C]-caffein % Control,"[4]; 6 hrs, 10 mg/ml",101%
same,Barrier function % Control,"[4]; 7 hrs, 3 mg/ml",94%
same,Mean [14C]-caffein (cpm),"[4]; 7 hrs, 3 mg/ml",199859 cpm
same,[14C]-caffein % Control,"[4]; 7 hrs, 3 mg/ml",106%
same,Barrier function % Control,"[4]; 7 hrs, 10 mg/ml",99%
same,Mean [14C]-caffein (cpm),"[4]; 7 hrs, 10 mg/ml",190843 cpm
same,[14C]-caffein % Control,"[4]; 7 hrs, 10 mg/ml",101%
same,Barrier function % Control,"[4]; 8 hrs, 3 mg/ml",100% and 99%
same,Barrier function (% L-Proline 3 mg/ml),"[4]; 8 hrs, 3 mg/ml",104%
same,Barrier function (% L-Proline 10 mg/ml),"[4]; 8 hrs, 3 mg/ml",100%
same,Mean [14C]-caffein (cpm),"[4]; 8 hrs, 3 mg/ml",193655 cpm and 194941 cpm
same,[14C]-caffein % Control,"[4]; 8 hrs, 3 mg/ml",100% and 101%
same,Barrier function % Control,"[4]; 8 hrs, 10 mg/ml",95%
same,Mean [14C]-caffein (cpm),"[4]; 8 hrs, 10 mg/ml",203011 cpm
same,[14C]-caffein % Control,"[4]; 8 hrs, 10 mg/ml",105%
same,caffein diffusion through RHE,[4]; 3 mg/ml,did not decrease caffein diffusion
same,caffein diffusion through RHE,[4]; 10 mg/ml,did not decrease caffein diffusion
